This note sets out measurements from US20070092474A1, “Carnitine salt, preliposome which contains it and dermocosmetic formula for topical use based upon said carnitine salt” (priority 2003, published 2007).

For this test, the system named is skin blemishes caused by cellulite and localised adiposity. Nature of the test: Thigh circumference measured with a measuring tape, dermatological test of the cosmetic gel. Format: in vivo, female volunteers. Conditions: MEDIA of 25 volunteers. As to the method:
A dermatological test was carried out on 25 female volunteers between 18 and 65 years of age, with the backing of the Department of Physiological and Pharmacological Sciences of the university of Pavia. The investigation aimed to check the modification of three anatomical-physiological parameters, qualifying the unaesthetic-functional aspect connected to the manifestation of so-called cellulite and subcutaneous hypertriglyceridaemia: measurement of the skin folds, measurement of the circumference of the thighs, thermographic skin measurement.
The test stretched out over 60 days with the continual daily application of the aforementioned preparation of cosmetic gel. The measurements were carried out after 15, 30 and 60 days. The detail of the test protocol and of the results obtained is shown hereafter.
25 female volunteers aged between 18 and 65, with the presence of skin blemishes caused by cellulite and localised adiposity, were selected according to the following criteria: good general state of health, absence of skin pathologies, not being under medication, commitment not to vary the normal daily routine, no medical history of atopy.
The samples were tested by uniformly applying them on “Glute SX Glute DJ (Femoris Posto SX Femoris Posto DX Femoris Ant. SX Femoris Ant. DX” every day at least once per day for the entire duration of the test.
At the time of inclusion in the study and during the subsequent checks after 15 days (T15), after 30 days (T30) and after 60 days (T60) of treatment the following instrumental measurements were taken: • plicometry (through a plicometer) • thigh circumference (through a measuring tape broken into millimetres) • contact thermography (through liquid crystal thermographic plates).

The mark [1] stands for this setting: T0 at inclusion, before treatment.
Setting [2] is: after 15 days of daily gel application.
Where [3] appears, read: after 30 days of daily gel application.
Where [4] appears, read: after 60 days of daily gel application.

For the substance “carnitine hydroxycitrate [carnitine hydroxy citrate]”, under setting [1], the “LEFT THIGH CIRCUMFERENCE 1/3 T0, MEDIA” value came out at 53.1; the “LEFT THIGH CIRCUMFERENCE 2/3 T0, MEDIA” value came to 50.2; the “LEFT THIGH CIRCUMFERENCE 3/3 T0, MEDIA” value turned out to be 40.3; the “RIGHT THIGH CIRCUMFERENCE 1/3 T0, MEDIA” value worked out at 53.1. Further, under setting [1], the “RIGHT THIGH CIRCUMFERENCE 2/3 T0, MEDIA” value came out at 50.3 and the “RIGHT THIGH CIRCUMFERENCE 3/3 T0, MEDIA” value is 40.4. Also, under setting [2], the “LEFT THIGH CIRCUMFERENCE 1/3 T15, MEDIA” value turned out to be 52.7; the “LEFT THIGH CIRCUMFERENCE 2/3 T15, MEDIA” value is given as 49.7; the “LEFT THIGH CIRCUMFERENCE 3/3 T15, MEDIA” value was determined as 39.8; the “RIGHT THIGH CIRCUMFERENCE 1/3 T15, MEDIA” value is 53.3. Under setting [2], the “RIGHT THIGH CIRCUMFERENCE 2/3 T15, MEDIA” value came to 49.2 and the “RIGHT THIGH CIRCUMFERENCE 3/3 T15, MEDIA” value came out at 39.5. Also, under setting [3], the “LEFT THIGH CIRCUMFERENCE 1/3 T30, MEDIA” value is 51.6; the “LEFT THIGH CIRCUMFERENCE 2/3 T30, MEDIA” value amounted to 48.8; the “LEFT THIGH CIRCUMFERENCE 3/3 T30, MEDIA” value was 38.7; the “RIGHT THIGH CIRCUMFERENCE 1/3 T30, MEDIA” value came to 51.8. Besides, under setting [3], the “RIGHT THIGH CIRCUMFERENCE 2/3 T30, MEDIA” value was 48.8 and the “RIGHT THIGH CIRCUMFERENCE 3/3 T30, MEDIA” value amounted to 38.8. Under setting [4], the “LEFT THIGH CIRCUMFERENCE 1/3 T60, MEDIA” value is 50.7; the “LEFT THIGH CIRCUMFERENCE 2/3 T60, MEDIA” value was 47.9; the “LEFT THIGH CIRCUMFERENCE 3/3 T60, MEDIA” value was 38.1; the “RIGHT THIGH CIRCUMFERENCE 1/3 T60, MEDIA” value was 50.7. Also, under setting [4], the “RIGHT THIGH CIRCUMFERENCE 2/3 T60, MEDIA” value was found to be 47.7 and the “RIGHT THIGH CIRCUMFERENCE 3/3 T60, MEDIA” value is reported as 38.0.
